# Earlier results as cited in patent US20110236503A1, “Topical Skincare Composition” (COSMALABS INTERNATIONAL, LLC, priority 2010, published 2011).
# Settings: topical composition having 5% benzoyl peroxide vs erythromycin and clindamycin formulations
smiles,measurement,value
"O=C(OOC(=O)c1ccccc1)c1ccccc1 [benzoyl peroxide, Benzoyl peroxide]",effectiveness for acne compared with other topical antimicrobials,at least as effective for acne as erythromycin and clindamycin formulations
